Test results from publication PMC6753678, “Fueling Open Innovation for Malaria Transmission-Blocking Drugs: Hundreds of Molecules Targeting Early Parasite Mosquito Stages” (Frontiers in Microbiology, 2019).

Tested on: P. berghei ookinete development
Settings: primary screen at 1 μM

Row | SMILES | % inhibition, Replicate A | % inhibition, Replicate B
1 | CC(=O)c1c[nH]c2ccc(/C=C/C(=O)NC3CCC(CCN4CCc5ccc(C#N)cc5CC4)CC3)cc12.Cl (stereo not shown) [TCMDC-139781] | 63.32% | 35.61%
2 | COc1ccc2nccc(C(=O)NC3CCC(CCN4CCc5cc(C#N)ccc5C4)CC3)c2c1.Cl (stereo not shown) [TCMDC-139240] | 53.92% | 18.69%
3 | COc1ccc2nccc([C@@H](O)CN3CCC(NC(=O)Cc4cccc5c(Br)cccc45)CC3)c2c1 [TCMDC-141111] | 36.89% | 51.52%
4 | COc1cc(CN2CCN(c3ccnc(N(C)C4CCN(C)CC4)n3)CC2)cc(Cl)c1O [TCMDC-125096] | 51.09% | 24.20%
5 | COc1ccc2nc(-c3cc(-c4ccc(NC(=O)CN5CCOCC5)cc4)cnc3N)[nH]c2c1 [TCMDC-135373] | 111.93% | 79.71%
6 | O=[N+]([O-])c1ccccc1C=NN=c1c2c([nH]c3ccccc13)CCCC2 [TCMDC-142202] | 51.15% | 30.70%
7 | c1ccc(-c2csc(Nc3nc4cc5c(cc4s3)OCO5)n2)nc1 [TCMDC-124550] | 83.78% | 59.07%
8 | COc1ccc2nccc(NC(=O)N3CCC(NCc4cc5ccccc5[nH]4)CC3)c2n1.O=C(O)C(=O)O [TCMDC-140671] | 55.02% | 18.69%
9 | CC(=O)Nc1cccc(CN(Cc2ccc(-c3ccc(CNCc4cccnc4)cn3)cc2)C(=O)Cc2cccnc2)c1.O=C(O)C(F)(F)F [TCMDC-141604] | 63.32% | 20.87%
10 | Cl.N=C(N)NN=Cc1cc2ccccc2c2ccccc12 [TCMDC-137671] | 63.22% | 44.77%
11 | CS(=O)(=O)Cc1ccc(Nc2nccc(-c3c(-c4cccc(NC(=O)c5c(F)cccc5F)c4)nn4ccccc34)n2)cc1 [TCMDC-135669] | 21.89% | 53.61%
12 | COc1ccc(Nc2nc(C)cc(NC3CCCC3)n2)cc1 [TCMDC-133465] | 51.72% | 31.38%
13 | CCCCCCNC(=O)C1Cc2c([nH]c3ccc(Br)cc23)C2(CCN(CCc3ccccc3)CC2)N1 (stereo not shown) [TCMDC-141182] | 15.53% | 59.10%
14 | COc1cc(C(=O)N2CCOC(CCN3CCC(c4ccc(Cl)cc4)CC3)(c3ccc(Cl)c(Cl)c3)C2)cc(OC)c1OC (stereo not shown) [TCMDC-135566] | 63.32% | 35.61%
15 | O=c1cc(NCCCN(Cc2cc3c(Cl)cc(Cl)cc3[nH]2)Cc2cc3c(Cl)cc(Cl)cc3[nH]2)[nH]c2ccccc12 [TCMDC-139849] | 64.98% | 20.87%
16 | Cc1cccc2nc(-c3ccc(-c4ccc(NC(=O)NCc5cccc(F)c5)cc4)cc3)[nH]c12 [TCMDC-133294] | 56.07% | 54.12%
17 | CN(Cc1ccccc1)C1CCN(c2cc(NC(=O)c3cccc(F)c3)ccn2)CC1.O=C(O)C(F)(F)F [TCMDC-135000] | 52.34% | 57.11%
18 | COc1ccc2nc3cc(Cl)ccc3c(Nc3ccc(C(=O)O)cc3)c2c1.Cl [TCMDC-138029] | 92.30% | 90.70%
19 | CCc1ccc(NC(=O)c2ccc(CN3CCCN(CC4CCCCC4)CC3)cc2)cc1.O=C(O)C(F)(F)F [TCMDC-136437] | 48.61% | 52.92%
20 | CCOC(=O)c1cc2c(CCN3C(=O)c4ccccc4C3=O)cn(C)c2cc1-c1ccncc1 [TCMDC-138099] | 54.94% | 51.34%
21 | COc1cc(OC)cc(C(=O)Nc2ccc(Nc3nc(C)cc(N(C)C)n3)cc2)c1 [TCMDC-124726] | 52.96% | 25.99%
22 | C=Cc1cc(OC)c2c(c1)c(=O)oc1c2cc(OC)c2c(O)ccc([C@H]3O[C@H]([C@H](C)O)[C@H](O)[C@H]3O)c21 [TCMDC-141972] | 89.48% | 109.41%
23 | O=C(CSc1nn(-c2ccccc2)c(=S)s1)c1c[nH]c2ccccc12 [TCMDC-124894] | 61.81% | 32.04%
24 | COc1ccccc1-c1cccc(CNC2CCN(CC3Cn4c(=O)ccc5ccc(F)c3c54)CC2)c1.O=C(O)C(F)(F)F (stereo not shown) [TCMDC-134411] | 72.27% | 57.51%

Row | SMILES | % inhibition, Replicate A | % inhibition, Replicate B
25 | CCN(CC)CCCC(C)Nc1c(-c2ccc(C)cc2)cnc2ccccc12 (stereo not shown) [TCMDC-142264] | 53.92% | 8.32%
26 | Cc1ccc(-c2noc(COc3ccccc3C(=O)NC3CCCC3)n2)cc1 [TCMDC-124748] | 70.37% | 89.43%
27 | CN(C)CCCOc1ccccc1CN1CC[C@H](NC(=O)c2ccc(Cl)c(Cl)c2)C1.O=C(O)C(F)(F)F [TCMDC-140310] | -10.45% | 74.47%
28 | Cc1nc2nc(N)nc(N)c2c(C)c1Cc1ccccc1I.Cl [TCMDC-137243] | 8.94% | 52.96%
29 | CCCc1cc2c3c(N)nc(N)nc3ccc2n1CC [TCMDC-137946] | 61.03% | 76.85%
30 | CN1CCC(C(=O)Nc2ccc(-c3cccc(-c4nc5cc(F)ccc5[nH]4)c3)cc2)CC1 [TCMDC-132180] | 7.14% | 53.61%
31 | Cc1cnc(C(=O)Nc2cccc(-c3ccc(-c4nc5cc(C(F)(F)F)ccc5[nH]4)s3)c2)cn1 [TCMDC-137028] | 1.65% | 57.27%
32 | CCC[C@@H]([C@@H](CC1CCCCC1)C(=O)N[C@H](C(=O)Nc1nccs1)C(C)(C)SC)N(O)C=O [TCMDC-138113] | 7.94% | 61.12%
33 | CC(C)COc1ccc(Cl)cc1Cc1ccc(-c2nc3cnc4ccccc4c3[nH]2)o1 [TCMDC-136650] | 61.46% | 37.55%
34 | O=C(Nc1cccc(C(F)(F)F)c1)c1cccc(S(=O)(=O)NCC2CCCN2CC2CCCCC2)c1.O=C(O)C(F)(F)F (stereo not shown) [TCMDC-133687] | 11.95% | 57.11%
35 | CCSc1ccccc1COc1c(C)nc(N)nc1N.Cl [TCMDC-131359] | 61.82% | 19.87%
36 | Cc1cc(C(=O)NC2CCN(CC3(c4ccc(Cl)cc4)CCC3)CC2)on1 [TCMDC-124833] | 70.28% | 68.63%
37 | CCCC(=O)Nc1ccc(Cl)c(NC(=O)COc2cc(C)ccc2C(C)C)c1 [TCMDC-123706] | 60.12% | 20.94%
38 | CC(CO)(CO)NCc1cc2ccc3ccsc3c2c2ccccc12.CS(=O)(=O)O [TCMDC-137753] | 48.80% | 68.87%
39 | Cc1ccc(CN2CCC(C(=O)Nc3ccc(-c4cc5ccccc5[nH]4)cc3)CC2)o1 [TCMDC-124634] | 35.55% | 65.49%
40 | CCCCCc1cnc2nc(N)nc(N)c2c1C.Cl [TCMDC-137717] | 60.03% | 27.06%
41 | Cc1nc(N)nc(N)c1CCCOc1ccccc1Cl [TCMDC-137929] | 38.99% | 55.23%
42 | O=C(NCCCN1CCN(c2cccc(Cl)c2)CC1)c1ccc(-c2nc3cc(Cl)c(Cl)cc3[nH]2)cc1 [TCMDC-140077] | 61.66% | 14.32%
43 | Br.CC1(C)N=C(N)N=C(N)N1OCCc1ccc2ccccc2c1 [TCMDC-131755] | 66.00% | 52.02%
44 | Cc1cc(Nc2cccc(C#N)c2)nc(Nc2ccccc2C)n1 [TCMDC-133471] | 56.49% | 36.05%
45 | O=C(Nc1ccccc1O)c1ccc(S(=O)(=O)c2ccc(Cl)cc2)cc1 [TCMDC-123689] | 23.88% | 50.54%
46 | COc1cc(NCCCNC(=O)c2cc3c(Cl)cc(Cl)cc3[nH]2)nc2ccccc12 [TCMDC-140360] | 57.79% | 39.97%
47 | CCN1CCN(CCCNc2c3ccc(Cl)cc3nc3ccc(OC)cc23)CC1.Cl [TCMDC-137586] | 79.33% | 90.04%
